Test results taken from US20220387325A1, “METHOD FOR MANUFACTURING DISPERSION OF ULTRAFINE PARTICLES OF POORLY SOLUBLE SUBSTANCE” (NANO CUBE JAPAN CO., LTD., priority 2019, published 2022).
One block for each compound: values may come before it.

Key:
[1] = physchem; conditions: for solubility at 1 h: water, thermodynamic from solid
Method: To 100 mL of the liquid thus obtained, 100 mL of water was added and acetone was distilled off by concentration under reduced pressure to obtain a water dispersion of ultrafine particles of coenzyme Q10.
(§1) To 100 mL of the liquid thus obtained, 100 mL of water was added and acetone was distilled off by concentration under reduced pressure to obtain a water dispersion of ultrafine particles of busulfan. […] The solubility was measured in the same manner as in Example 1, except that busulfan was used in place of coenzyme Q10.
as §1, with “ethanol” for “acetone”, “docetaxel.” for “busulfan.”, “docetaxel” for “busulfan”
as §1, with “ethanol” for “acetone”, “paclitaxel.” for “busulfan.”, “paclitaxel” for “busulfan”
To 100 mL of the liquid thus obtained, 100 mL of water was added and ethanol was distilled off by concentration under reduced pressure to obtain a water dispersion of ultrafine particles of azadirachtin.
To 100 mL of the liquid thus obtained, 100 mL of 1-butanol was added and water was distilled off by concentration under reduced pressure to obtain a 1-butanol dispersion of ultrafine particles of ascorbic acid.

[2] = physchem; conditions: 25 °C, organic solvent or mixture
[3] = Solubility in good solvent; conditions: for solubility: organic solvent or mixture

solubility at 1 h ([1]; 20 °C): ≤ 0.1 mg/mL
solubility [2]: ≥ 30 mg/mL
SMILES: C/C=C(\C)C(=O)O[C@H]1C[C@@H](OC(C)=O)[C@@]2(C(=O)OC)CO[C@H]3[C@@H](O)[C@@](C)([C@]45O[C@@]4(C)[C@H]4C[C@@H]5O[C@@H]5OC=C[C@@]54O)[C@H]4[C@]1(CO[C@]4(O)C(=O)OC)[C@@H]32 [azadirachtin]

solubility at 1 h ([1]; 25 °C): ≤ 0.01 mg/mL
solubility ([3]; acetone, 50 °C): ≥ 30 mg/mL
SMILES: CS(=O)(=O)OCCCCOS(C)(=O)=O [busulfan]

solubility in water [1]: ≤ 0.01 mg/mL
solubility in acetone ([3]; acetone, 25° C.): ≥ 30 mg/mL
SMILES: COC1=C(OC)C(=O)C(C/C=C(\C)CC/C=C(\C)CC/C=C(\C)CC/C=C(\C)CC/C=C(\C)CC/C=C(\C)CC/C=C(\C)CC/C=C(\C)CC/C=C(\C)CCC=C(C)C)=C(C)C1=O [coenzyme Q10]

solubility at 1 h ([1]; 25 °C): ≤ 0.01 mg/mL
solubility ([3]; ethanol, 60 °C): ≥ 20 mg/mL
SMILES: CC(=O)O[C@@]12CO[C@@H]1C[C@H](O)[C@@]1(C)C(=O)[C@H](O)C3=C(C)[C@@H](OC(=O)[C@H](O)[C@@H](NC(=O)OC(C)(C)C)c4ccccc4)C[C@@](O)([C@@H](OC(=O)c4ccccc4)[C@H]21)C3(C)C [docetaxel]

solubility at 1 h ([1]; 25 °C): ≤ 0.01 mg/mL
solubility ([3]; ethanol, 25 °C): ≥ 30 mg/mL
SMILES: CC(=O)O[C@H]1C(=O)[C@@]2(C)[C@H]([C@H](OC(=O)c3ccccc3)[C@]3(O)C[C@H](OC(=O)[C@H](O)[C@@H](NC(=O)c4ccccc4)c4ccccc4)C(C)=C1C3(C)C)[C@]1(OC(C)=O)CO[C@@H]1C[C@@H]2O [paclitaxel]
